# Experimental data: US6057441A, “Substituted tetracyclic tetrahydrofuran derivatives” (Janssen Pharmaceutica, N.V., priority 1996, dated 2000)
# Where a name gives a salt, the structure may show the parent alone.
# Experiments:
# 5-HT2A receptor = target: T1, 5-HT2A receptor (Rattus norvegicus, UniProt P14842); test: In vitro radioligand binding affinity for 5-HT2A receptor (3H-ketanserin, frontal cortex); details: test concentration of 10^-7 M, frontal cortex of the rat
# T1 construct: the tissue used is the frontal cortex of the rat; from tissue; host or cells: rat frontal cortex
# T1 sequence (P14842 whole entry): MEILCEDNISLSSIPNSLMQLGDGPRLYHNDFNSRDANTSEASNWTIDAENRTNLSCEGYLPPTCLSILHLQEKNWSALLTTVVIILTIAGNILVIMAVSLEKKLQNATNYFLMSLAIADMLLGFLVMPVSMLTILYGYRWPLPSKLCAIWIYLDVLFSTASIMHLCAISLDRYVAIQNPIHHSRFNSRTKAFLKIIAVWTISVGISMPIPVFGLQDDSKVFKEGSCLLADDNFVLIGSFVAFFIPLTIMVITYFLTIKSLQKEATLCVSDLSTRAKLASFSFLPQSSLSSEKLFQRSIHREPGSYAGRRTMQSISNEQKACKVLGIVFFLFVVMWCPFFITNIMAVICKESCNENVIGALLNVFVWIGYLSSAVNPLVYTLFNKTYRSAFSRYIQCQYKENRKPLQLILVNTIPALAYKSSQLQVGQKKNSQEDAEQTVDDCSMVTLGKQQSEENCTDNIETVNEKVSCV
# Experimental: (§1) The interaction of the compounds of formula (I) with 5-HT2A and 5-HT2C receptors was assessed in in vitro radioligand binding experiments. In general, a low concentration of a radioligand with a high binding affinity for the receptor is incubated with a sample of a tissue preparation enriched in a particular receptor (1 to 5 mg tissue) in a buffered medium (0.2 to 5 ml). During the incubation, the radioligands bind to the receptor. When equilibrium of binding is reached, the receptor bound radioactivity is separated from the non-bound radioactivity, and the receptor bound activity is counted. The interaction of the test compounds with the receptors is assessed in competition binding experiments. Various concentrations of the test compound are added to the incubating mixture containing the tissue preparation and the radioligand. Binding of the radioligand will be inhibited by the test compound in proportion to its binding affinity and its concentration. The radioligand used for 5-HT2A binding affinity is ^3 H-ketanserin and the tissue used is the frontal cortex of the rat. […] The radioligand used for 5-HT2C binding affinity is ^3 H-mesulergine and the tissue used is the choroid plexus of the pig.
# 5-HT2C receptor = target: T2, 5-HT2C receptor (Sus scrofa, UniProt K7GSR7); test: In vitro radioligand binding affinity for 5-HT2C receptor (3H-mesulergine, choroid plexus); details: test concentration of 10^-7 M, choroid plexus of the pig
# T2 construct: the tissue used is the choroid plexus of the pig; from tissue; host or cells: pig choroid plexus
# T2 sequence (K7GSR7 1-457): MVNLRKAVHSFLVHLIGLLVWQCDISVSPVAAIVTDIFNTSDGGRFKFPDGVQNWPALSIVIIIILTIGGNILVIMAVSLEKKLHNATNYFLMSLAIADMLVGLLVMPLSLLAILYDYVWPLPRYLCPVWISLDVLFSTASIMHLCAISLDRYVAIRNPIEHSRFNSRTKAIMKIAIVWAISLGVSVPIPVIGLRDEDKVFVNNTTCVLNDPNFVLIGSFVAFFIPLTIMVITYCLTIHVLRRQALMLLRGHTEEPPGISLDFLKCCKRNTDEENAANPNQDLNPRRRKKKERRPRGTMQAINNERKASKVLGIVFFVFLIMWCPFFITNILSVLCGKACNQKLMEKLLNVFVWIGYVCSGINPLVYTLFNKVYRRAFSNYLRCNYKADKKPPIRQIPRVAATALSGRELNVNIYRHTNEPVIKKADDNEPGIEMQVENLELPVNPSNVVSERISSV
# Experimental: as §1
# [1] = tested on: mCPP (metachlorophenylpiperazine) induced effects; test: mCPP Test on Rats; assay type: in vivo, rat; details: pre-test time T of 1 hour, 1 mg/kg mCPP intravenously 15 minutes prior to the test, Open Field Test; for ED40: Rattus norvegicus, iv, read-out: active dose (dose at which 40% of the tested rats showed suppression of the mCPP induced effects, i.e. mCPP-antagonism)
# Experimental: Rats were treated with the test compound at a dose varying between 0.0025 mg/kg and 40 mg/kg body weight at a pre-test time T of 1 hour, and with 1 mg/kg mCPP (metachlorophenylpiperazine), injected intravenously, 15 minutes prior to the test. After pre-test time T elapsed, treated rats were submitted to the "Open Field Test on Rats" as described in Drug. Dev. Res. 18, 119-144 (1989), but using an infra-red light source instead of a Kleverlux® (12 V/20 W) light source. […] Compounds number 1, 2, 4 and 9 were active at a test dose of 2.5 mg/kg or less.
# [2] = dose of 300 mg/kg; cited from earlier work
SMILES,inhibition at 0.1 µM (5-HT2A receptor) [%],inhibition at 0.1 µM (5-HT2C receptor) [%],ED40 [1] [mg/kg],also measured
O=C(c1ccc(F)cc1)C1CCN(CC2CC3c4ccccc4Cc4ccccc4C3O2)CC1 (stereo not shown) [Compound 8],> 40,> 40,,
CN(C)CC1CC2c3ccccc3Oc3ccccc3C2O1 (stereo not shown) [Compound 2],,,,"active dose (dose at which 40% of the tested rats showed suppression of the mCPP induced effects, i.e. mCPP-antagonism) [1]: ≤ 2.5 mg/kg; inhibition of the 5-HT2C receptor (5-HT2C receptor): less than 40%"
"CNCC1CC2c3ccccc3Cc3ccccc3C2O1.O=C(O)C(=O)O (racemic) [(±)-3,3a,8,12b-tetrahydro-N-methyl-2H-dibenzo[3,4:6,7]-cyclohepta[1,2-b]furan-2-methanamine oxalic acid]",,,,antidepressant activity [2]: inactive
c1ccc(C2CCN(CC3CC4c5ccccc5Cc5ccccc5C4O3)CC2)cc1 (stereo not shown) [Compound 7],,> 40,,
"CN(C)CC1CC2c3ccccc3Cc3ccccc3C2O1.Cl (racemic) [Compound 4, (±)-3,3a,8,12b-tetrahydro-N,N-dimethyl-2H-dibenzo[3,4:6,7]cyclohepta[1,2-b]furan-2-methanamine hydrochloride (1:1)]",> 40,> 40,≤ 2.5,
"CN(C)CC1CC2c3ccccc3Oc3ccccc3C2O1 (racemic) [Compound 1, (±)-2,3,3a,12b-tetrahydro-N,N-dimethyldibenzo[bf]furo[2,3-d]oxepin-2-methanamine]",,> 40,≤ 2.5,
Clc1cccc(N2CCN(CC3CC4c5ccccc5Cc5ccccc5C4O3)CC2)c1 (stereo not shown) [Compound 6],,> 40,,
CN1CCN(CC2CC3c4ccccc4Cc4ccccc4C3O2)CC1 (stereo not shown) [Compound 5],> 40,> 40,,
"OCCN1CCN(CC2CC3c4ccccc4Cc4ccccc4C3O2)CC1 (racemic) [Compound 3, (±)-4-[(3,3a,8,12b-tetrahydro-2H-dibenzo[3,4:6,7]cyclohepta[1,2-b]furan-2-yl)methyl]-1-piperazineethanol dihydrochloride]",> 40,> 40,,
c1ccc2c(c1)Cc1ccccc1C1OC(CN3CCOCC3)CC21 (stereo not shown) [Compound 9],> 40,> 40,≤ 2.5,
